The target of series [1] is T1, CatSper (Homo sapiens, UniProt Q7RTX7+Q86XQ3+Q8NEC5+Q96P56).
T1 construct: Motile spermatozoa were selected by a ‘swim-up’ procedure; endogenous in cells; host or cells: motile human spermatozoa (swim-up) from healthy donors
Nature of the series: Inhibition of P4-induced Ca2+ influx in human sperm (screen 2 inhibitors). The series is classed as cell-based. As to conditions: for Max P4 inhibition (%) (± SD): 3 independent experiments.

For series [2], the target named is T1, CatSper. The series is described as follows: Inhibition of PGE1-induced Ca2+ influx in human sperm (screen 2 inhibitors). The series is classed as cell-based. The protocol:
Briefly, motile spermatozoa were selected by swim-up and labeled with the fluorescent calcium indicator Fluo-4 a.m. to image changes in [Ca^2+]i. After centrifugation to remove excess dye, Fluo-4 AM loaded cells were distributed in a 384-wells plate to obtain ∼125,000 cells/well. After measuring basal fluorescence, a first injection of compounds was performed in order to evaluate their effect on [Ca^2+]i alone. This first screen is therefore considered as a screen to search for ‘activators’. Fluorescence was recorded for 12 min during which sperm cells were continuously exposed to compounds. P4 or PGE1 were then added in the same wells to evaluate whether the tested compounds can reduce the ligand-induced activation of CatSper. This second screen was therefore considered to be a search for CatSper ‘inhibitors’.
Human semen samples were collected from healthy donors by masturbation after a recommended sexual abstinence period of minimum 2 days. Semen samples were allowed to liquefy at 37°C for 15–30 min. Motile spermatozoa were selected by a ‘swim-up’ procedure as previously described ([Strünker et al., 2011]). Briefly, 1 mL of semen was deposited in a 45°-inclined 50 mL Falcon tube with 4 mL of Human Tubular Fluid (HTF) medium containing: 93.8 mM NaCl, 4.7 mM KCl, 0.2 mM MgSO4, 0.37 mM KH2PO4, 2.04 mM CaCl2, 20.98 mM HEPES, 2.78 mM glucose, 21.4 mM Na-lactate, 4 mM NaHCO3, 0.33 mM Na-pyruvate, and the pH was adjusted to 7.35. Motile sperm were allowed to swim at 37°C for 1 hour. The supernatant was collected in 15 mL Falcon tubes and washed twice by centrifugation at 700 x g for 20 min. Sperm were supplemented with 3 mg/mL HSA. Written informed consent was obtained from all donors prior to donation and approved by the Cantonal Ethics Committee of the State of Geneva (CCER #14-147).
Cells were loaded with the fluorescent Ca^2+ indicator Fluo-4 AM at a final concentration of 2.5 µM for 30 min at 37°C. Excess dye was washed via centrifugation at 700 x g for 20 min and sperm were resuspended in HTF medium to obtain a final concentration of 6.25 x 10^6 cells/mL. 20 μL of cells (corresponding to ∼125,000 cells) loaded with Fluo-4 a.m. were dispensed in a 384-wells plate (Corning, NY, United States) to allow fluorescence measurement. The dye was excited at 480 nm, and emission was recorded at 530 nm. The change in [Ca^2+]i was assessed simultaneously in all wells using a Functional Drug Screening System (FDSS/μCELL) (Hamamatsu Phototonics K.K., Yokohama, Japan) at 37°C. Basal fluorescence was first measured for 30 s. […] P4 and PGE1 were tested at a near-saturating concentration in the HTS in order to evaluate a potential additive or synergistic effect induced by the compounds. Non-specific CatSper inhibitor MDL 12330A was used as a negative control at final concentration of 20 µM while DMSO was used as a vehicle control. For alkalization-induced Ca^2+ measurement, NH4Cl was used as a positive control at a final concentration of 10 mM. Fluorescence was recorded for a total of 16.5 min: 30 s before injection, 12 min after the first injection of the tested compounds, and 4 min after the second injection of either P4 or PGE1. The Prestwick library was tested in technical duplicate. Ca^2+ response curves were normalized using the following formula F−F0/F0×100 , where F 0 is the average of the basal fluorescence prior to the addition of the compound of interest and F corresponds to the fluorescence value at each time point. The ∆F/F0 of the vehicle control (DMSO) was subtracted from all the other values to adjust for dilution and pipetting artifacts. The values of all compounds were normalized to their respective controls.

Series [3] has as its target T1, CatSper. The series is described as follows: Cross-desensitization: P4 dose-response after pre-incubation with steroid at 10 µM. It is filed as cell-based. As to conditions: in the presence of predicted steroid at 10 µM, normalized to DMSO; P4 = control curve; n = 3; read-out: EC50 generated from concentration-response curves of P4-induced [Ca2+]i influx.
For series [4] the following is noted: ref Löfgren and Bäckström (1990), cited from earlier work.
Another series deals with human sperm. Nature of the series: Sperm penetration in viscous media (modified Kremer test). The series is classed as cell-based. Conditions: steroids 10 µM, P4 5 µM, 1 h, 1% methylcellulose. The protocol: The ability of sperm to penetrate in viscous media similar in viscosity to that found in the female reproductive tract was assessed using the modified Kremer test, as previously described ([Rahban et al., 2021]). Briefly, swim-up recovered and capacitated sperm cells at 3 x 10^6/mL were incubated in the absence (DMSO) or presence of steroids (10 µM), or P4 (5 µM) as a positive control for 1 h at 37°C. A glass capillary (0.2 × 4.0 × 50 mm, CM scientific, UK) was filled with 1% (w/v) methylcellulose (MC, 4000 centipoises cP) prepared with HTF media supplemented with 3 mg/mL HSA, respective compounds (10 µM), P4 (5 µM), or DMSO. The glass capillary tube was then sealed on one end with wax (Vitrex, UK) and added to the sperm cells on the open end. Sperm penetration was assessed after 1 h of incubation at 37°C by counting sperm at 1 cm using a microscope with a ×10 objective.

Where [5] appears, read: IC50 (±SD), inhibition of P4-induced Ca2+ response, dose-response 90 µM to 0.3 nM.
Where [6] appears, read: Mean IC50 (P4) µM (±SD), P4-induced response, pooled from 3 independent experiments.

Read-outs that look alike come from different tables or passages of the source.

`C[C@]12CC[C@H](O)C[C@@H]1CC[C@@H]1[C@@H]2CC[C@]2(C)C(=O)CC[C@@H]12` [Epiandrosterone]: the “Max P4 inhibition (%) (± SD)” value at CatSper [1] was 72 (±2) %. Also, the IC50 (in general, the concentration that gives 50% inhibition) on CatSper [1] (setting [5]) was 0.628 µM; at CatSper [1] (setting [6]) it was 0.625 µM.

As for `CC(=O)[C@H]1CC[C@H]2[C@@H]3CC=C4C[C@@H](O)CC[C@]4(C)[C@H]3CC[C@]12C` [Pregnenolone], at CatSper [1], the “Max P4 inhibition (%) (± SD)” value is listed as 82 (±5) %. In addition, the IC50 on CatSper [1] (setting [5]) was determined as 0.199 µM; on CatSper [2] it was 11 nM.

As to `CC(=O)[C@H]1CC[C@H]2[C@@H]3CCC4=CC(=O)CC[C@]4(C)[C@H]3CC[C@]12C` [Progesterone], the “Max P4 inhibition (%) (± SD)” value at CatSper [1] is given as 79 (±7) %. In addition, at CatSper [1] (inhibition of P4-induced Ca2+ response, dose-response 90 µM to 0.3 nM, read-out: IC50 (±SD)), the IC50 was determined as 0.006 µM. The EC50 on CatSper [3] is 5 nM. Besides, the Maximum serum level in series [4] (female) is 60 nM (female); in series [4] (male), 3 nM (male).

As for `C[C@]12Cc3c[nH]nc3C[C@@H]1CC[C@@H]1[C@@H]2CC[C@@]2(C)[C@H]1CC[C@]2(C)O` [Stanozolol], the “Max P4 inhibition (%) (± SD)” value at CatSper [1] is 96 (±2) %. For the same compound, the IC50 came to 0.194 µM on CatSper [1] (setting [5]), 0.19 µM on CatSper [1] (setting [6]) and 117 nM at CatSper [2]. Further, the “number of sperm penetrating viscous medium at 1 cm” value with human sperm is reported as “significant increase in cell number”.
